Legend:
ICAM-1 and VCAM-1 = assay: Histology and ICAM-1/VCAM-1 immunohistochemistry in organs of LPS-treated mice; assay type: in vivo, mouse
Description: Histology: Tissue from liver, lung, kidney and heart from normal, LPS and LPS plus C-10 treated mice (experiment in Table 5), were fixed in 4%-PBS-formalin overnight. They then were dehydrated serially in alcohols 50%-70%-90%-100%, clarified in chloroform, and embedded in paraffin. Five (5) sections were obtained and mounted on Vectabond™ (Vector Laboratories, Inc. Burlingame, Calif.) pretreated slides. The sections were incubated twice (10 minutes each) in xylol and re-hydrated by serial alcohol treatments, 100%-90-70-50, followed by distilled water. Tissues were stained with Hematoxylin-Eosin using standard protocols, mounted, and observed by optical microscopy in a double blind manner.
Immunohistochemistry (IHC): C10 (pMMI) effects on the over-expression of adhesion molecules induced by LPS were studied in different organs. […] At 18 h after LPS injection, mice were sacrificed and the heart, lung, liver spleen and kidney were removed and fixed in 4% formalin in PBS. The tissue was then dehydrated in serial alcohols (50% v/v, twice; 70% v/v, twice; 80% v/v, twice; 95% v/v, twice; and 100% v/v, twice), cleared in pure chloroform, embedded in paraffin and sectioned ([…] thickness) and mounted on Vectabond™ (Vector Laboratories, Inc. Burlingame, Calif.) pre-treated slides. […]

TLR4 signaled genes = assay: Gene expression in organs of LPS-treated mice (Northern, RT-PCR); assay type: in vivo, mouse
horses = assay: LPS-induced endotoxemia and endotoxic shock in horses; assay type: in vivo, horse; settings: for Dyspnea and Tachypnea / Lung Auscultation / Toxemia and Vascular Congestion / Toxemia, Vascular Congestion, Cyanosis: C10 2 mg/kg iv pretreatment
mice = assay: Colitis model in mice (DSS); assay type: in vivo, mouse; settings: 10 animals, 0.1 mg/kg, 14 days
Stat1 = assay: LPS-induced Stat1 phosphorylation in RAW 264.7 macrophages (immunoblot); assay type: cell-based, mouse
serum cytokines = assay: Serum pro-inflammatory cytokines in LPS-treated mice (ELISA); assay type: in vivo, mouse; settings: LPS-treated mice of Table 5
Description: Quantification of pro-inflammatory cytokines in blood: The cytokines TNF-α, IL-1β, IL-6, IFN-γ and IL-12 were quantified in serum using ELISA techniques. Blood was collected from the inner canthus of the eye under anesthesia and serum saved at −20° C. until use. The ELISA kits were from R&D System and the results were expressed in pg/ml serum.

[1] = LPS 10 μg/kg, C10 (1 mg/kg) iv pretreatment, time 0.15-6 hours

## Cn1c(-c2ccccc2)cnc1S [Compound C10, 5-Phenylmethimazole]
ICAM-1 and VCAM-1; H&E, 18 hours
  microcirculatory damage and inflammatory cellular infiltration in lung: ameliorated
ICAM-1 and VCAM-1; immunohistochemistry
  ICAM-1 and VCAM-1 over-expression on endothelial cells (lung, liver): suppressed
TLR4 signaled genes; LPS injected mice at 24 hours, Northern
  pro-inflammatory cytokine gene expression (TNF α, IL-1β, IL-6, IL-12, IFN γ) in spleen, liver, lung, kidney, heart: suppressed
TLR4 signaled genes; LPS-treated mice of Table 5, Northern
  LPS-induced over-expression of IRF-1, IP-10 and MCP-1 RNA in organs: suppressed
TLR4 signaled genes; kidney, liver and lung, RT-PCR
  LPS-elevated COX-2 RNA levels: completely suppressed and returned to normal
TLR4 signaled genes; organs of LPS treated mice, RT-PCR
  LPS-down-regulated COX-1 RNA levels: returned RNA levels to the normal levels
TLR4 signaled genes; spleen, liver, lung, kidney, heart, RT-PCR
  LPS-increased iNOS RNA levels: suppressed
horses; LPS
  symptoms of endotoxemia (hypotension, hypoxemia, collapse, cardiac anoxia, acute renal failure): clearly blocked
horses; LPS 10 μg/kg, 1 week
  Dyspnea and Tachypnea: Normal
  Lung Auscultation: Normal
  Toxemia and Vascular Congestion: Normal
  Toxemia, Vascular Congestion, Cyanosis: Normal
horses; LPS 10 μg/kg, time 0.00 hours
  Dyspnea and Tachypnea: Normal
  Lung Auscultation: Normal
  Toxemia and Vascular Congestion: Normal
  Toxemia, Vascular Congestion, Cyanosis: Normal
horses; LPS 10 μg/kg, time 0.15 hours
  Dyspnea and Tachypnea: Normal
  Toxemia, Vascular Congestion, Cyanosis: Normal
horses; LPS 10 μg/kg, time 0.3 hours
  Dyspnea and Tachypnea: Normal
  Lung Auscultation: Normal
  Toxemia and Vascular Congestion: Weak Congestion
  Toxemia, Vascular Congestion, Cyanosis: Weak Congestion
horses; LPS 10 μg/kg, time 3 hours
  Dyspnea and Tachypnea: Normal
  Lung Auscultation: Normal
  Toxemia and Vascular Congestion: Weak Congestion
  Toxemia, Vascular Congestion, Cyanosis: Weak Congestion
horses; LPS 10 μg/kg, time 24 hours
  Dyspnea and Tachypnea: Normal
  Lung Auscultation: Normal
  Toxemia and Vascular Congestion: Normal
  Toxemia, Vascular Congestion, Cyanosis: Normal
horses; LPS 10 μg/kg, C10 (1 mg/kg) iv pretreatment, 1 week
  abdominal pain, diarrhea, collapse or prostration: normal
horses; LPS 10 μg/kg, C10 (1 mg/kg) iv pretreatment, time 0 hours
  abdominal pain, diarrhea, collapse or prostration: normal
horses; [1]
  abdominal pain, diarrhea, collapse or prostration: Normal
  number of stools: 1 stool
horses; LPS 10 μg/kg, C10 (1 mg/kg) iv pretreatment, time 24 hours
  abdominal pain, diarrhea, collapse or prostration: normal
mice; Ip freshly diluted in DMSO
  Survival % of Control: 100%
mice; Oral stored in excipient 1 week
  Survival % of Control: 100%
Stat1; RAW 264.7
  LPS induced Stat1 phosphorylation in cytoplasmic and nuclear fractions: reduce
Stat1; RAW 264.7, LPS 500 ng/mL 3 hours, 0.5 mM C10
  Stat1 serine phosphorylation at residue 727: reduce
Serum cytokines
  serum cytokine levels (IL-1β, IL-6, TNF-α, IFN-γ, IL-12) by ELISA: reduced these cytokine levels to levels in normal control mice
